Data as given in PubChem BioAssay (NCI).
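In this assay, cells in 96-well plates receive the compound at five concentrations for 48 hours. Endpoints are linearly interpolated between the surrounding concentrations. Abbreviation: GI50, concentration required for 50% inhibition of growth. TGI denotes the concentration required for complete inhibition of growth.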

How the values were obtained:
Test in all cases: NCI tumour cell line growth inhibition, 48 h
HS 578T breast = system: HS 578T breast
U251 CNS = system: U251 CNS
TK-10 renal = system: TK-10 renal
HL-60(TB) leukemia = system: HL-60(TB) leukemia
786-0 renal = system: 786-0 renal
HOP-62 NSCLC = system: HOP-62 NSCLC
SK-MEL-28 melanoma = system: SK-MEL-28 melanoma
SW-620 colon = system: SW-620 colon
SK-OV-3 ovarian = system: SK-OV-3 ovarian
SF-268 CNS = system: SF-268 CNS

| Structure (SMILES) | GI50 (HS 578T breast) [µM] | TGI (HS 578T breast) [µM] | GI50 (U251 CNS) [µM] | TGI (U251 CNS) [µM] | GI50 (TK-10 renal) [µM] | TGI (TK-10 renal) [µM] | GI50 (HL-60(TB) leukemia) [µM] | TGI (HL-60(TB) leukemia) [µM] | GI50 (786-0 renal) [µM] | TGI (786-0 renal) [µM] | GI50 (HOP-62 NSCLC) [µM] | TGI (HOP-62 NSCLC) [µM] | GI50 (SK-MEL-28 melanoma) [µM] | TGI (SK-MEL-28 melanoma) [µM] | GI50 (SW-620 colon) [µM] | TGI (SW-620 colon) [µM] | GI50 (SK-OV-3 ovarian) [µM] | TGI (SK-OV-3 ovarian) [µM] | GI50 (SF-268 CNS) [µM] | TGI (SF-268 CNS) [µM] |
| --- | --- | --- | --- | --- | --- | --- | --- | --- | --- | --- | --- | --- | --- | --- | --- | --- | --- | --- | --- | --- |
| NS(=O)(=O)c1ccc(Nc2cc(-c3ccc(O)c(F)c3)[nH]n2)cc1 | 7.28 | > 25 | 16.4 | > 25 | > 25 | > 25 | > 25 | > 25 | > 25 | > 25 | > 25 | > 25 | > 25 | > 25 | > 25 | > 25 | > 25 | > 25 | 10.3 | > 25 |
| O=C1NC(=NCc2ccccc2Cl)S/C1=C\c1ccc2ncccc2c1 | > 9.99 | > 19.4 | 6.44 | > 25 | 6.02 | > 25 | 10.1 | > 25 | 16.3 | > 25 | 16 | > 25 | > 25 | > 25 | 6.61 | > 25 | 15.6 | > 25 | 18.9 | > 25 |
| O=C1CC(c2c[nH]c3ccc(F)cc23)C(=O)N1 (stereo not given) | > 100 | > 100 | > 100 | > 100 | > 100 | > 100 | > 100 | > 100 | > 100 | > 100 | > 100 | > 100 | > 100 | > 100 | > 100 | > 100 | > 100 | > 100 | > 100 | > 100 |
| CCCCN(CCCC)C(=O)[C@H](CC)[C@@H]1CC[C@@H](C)[C@@H]([C@H](C)[C@@H](O)[C@@H](C)C(=O)[C@H](CC)C2O[C@]3(C=C[C@@H](O)[C@]4(CC[C@@](C)([C@H]5CC[C@](O)(CC)[C@H](C)O5)O4)O3)[C@H](C)C[C@@H]2C)O1 (stereo not given in full) | 2.32 | 7.83 | 2.78 | 10.3 | 3.57 | > 100 | 2.35 | 5.7 | 2.49 | 7.44 | 3.79 | 27.4 | 4.21 | 81.1 | 2.75 | 11.1 | 3.38 | > 100 | 3.17 | > 100 |
| C#Cc1cccc(Nc2ncnc3cc(NC(=O)CCl)ccc23)c1 | 3.71 | 14.2 | 0.789 | 2.92 | 1.86 | 5.98 | 4.45 | 11.3 | 1.07 | 5.53 | 3.22 | 6.77 | 3.67 | 7.34 | 0.832 | 3.08 | 3.5 | 11.5 | 3.3 | 8.55 |
| O=C1/C(=C/c2ccc(Cl)c(Cl)c2)CN(C(=O)C(Cl)Cl)C/C1=C\c1ccc(Cl)c(Cl)c1 | 0.355 | 3.79 | 0.0371 | 0.153 | 0.353 | 1.23 | 0.198 | 1.05 | 0.151 | 0.306 | 0.271 | 0.972 | 0.252 | 0.634 | 0.0364 | 0.196 | 0.558 | 1.82 | 0.243 | 1.14 |
| CSc1ccc(C2=C(c3ccccc3)C(=O)OC2)cc1 | 0.219 | 1.22 | 0.329 | 7.05 | 1.49 | 18.4 | 0.35 | 2.07 | 1.21 | 19.7 | 1.96 | > 70 | 6.69 | > 100 | 1 | > 20.1 | 1.51 | > 100 | 3.02 | > 64.7 |
| O=C1NC(=S)S/C1=C\c1cn(-c2ccccc2)nc1-c1ccccc1 | 6.03 | 43.6 | 5.54 | 21.2 | 8 | 85.2 | 4.83 | 59.8 | 3.92 | 28.5 | 22.7 | 68.4 | 9.22 | > 100 | 19.6 | > 100 | 11.9 | 42.2 | 17.2 | > 100 |
